Results as given in PubChem BioAssay AID1963828 (Molecular Pharmacology Branch, DTP, NCI, 2024).

System: 991263-137-R1-J2-PDC complex spheroid viability
Assay: Anticancer human tumor 991263-137-R1-J2-PDC patient-derived colon adenocarcinoma cell line growth inhibition [POLQ]
Conditions: for IC50: curve of first compound; for viability, T/C: stronger effect = lower value
Method in brief: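 Complex spheroid viability model combining PDC tumour cells with endothelial (HUVEC) and MSC stromal cells. Novobiocin, ART-558 or RP6685 were tested singly and in combination with standard and investigational anticancer drugs. Each was titrated in half-log steps from near clinical Cmax, or from 10 microM where Cmax was unknown.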
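Further: spheroids exposed to compounds for 7 days before readout.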
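Wherever viability, T/C is given: 100% = DMSO vehicle control viability.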

Compound: CC(=O)O[C@H]1C(=O)[C@@]2(C)[C@H]([C@H](OC(=O)c3ccccc3)[C@]3(O)C[C@H](OC(=O)[C@H](O)[C@@H](NC(=O)c4ccccc4)c4ccccc4)C(C)=C1C3(C)C)[C@]1(OC(C)=O)CO[C@@H]1C[C@@H]2O + Cc1cccc(N(C)C(=O)C2C(O)CCN2c2nc(C)cc(C(F)(F)F)c2C#N)c1
- IC50 (second compound 0.0316 µM): 1360 nM
- IC50 (second compound 0.1 µM): 1830 nM
- IC50 (second compound 0.316 µM): 1040 nM
- IC50 (second compound 1 µM): 825 nM
- IC50 (second compound 3.16 µM): 1510 nM
- IC50 (second compound 10 µM): 295 nM
- viability, T/C (second compound 0.0316 µM, first compound 0.00949 µM): 80.4%
- viability, T/C (second compound 0.0316 µM, first compound 0.03 µM): 85.6%
- viability, T/C (second compound 0.0316 µM, first compound 0.0949 µM): 85.2%
- viability, T/C (second compound 0.0316 µM, first compound 0.3 µM): 67.5%
- viability, T/C (second compound 0.0316 µM, first compound 0.949 µM): 53.2%
- viability, T/C (second compound 0.0316 µM, first compound 3 µM): 46.1%
- viability, T/C (second compound 0.1 µM, first compound 0.00949 µM): 93.4%
- viability, T/C (second compound 0.1 µM, first compound 0.03 µM): 92.5%
- viability, T/C (second compound 0.1 µM, first compound 0.0949 µM): 84.2%
- viability, T/C (second compound 0.1 µM, first compound 0.3 µM): 74%
- viability, T/C (second compound 0.1 µM, first compound 0.949 µM): 57.9%
- viability, T/C (second compound 0.1 µM, first compound 3 µM): 44%
- viability, T/C (second compound 0.316 µM, first compound 0.00949 µM): 85.8%
- viability, T/C (second compound 0.316 µM, first compound 0.03 µM): 86.3%
- viability, T/C (second compound 0.316 µM, first compound 0.0949 µM): 83.4%
- viability, T/C (second compound 0.316 µM, first compound 0.3 µM): 74.1%
- viability, T/C (second compound 0.316 µM, first compound 0.949 µM): 50.1%
- viability, T/C (second compound 0.316 µM, first compound 3 µM): 46.1%
- viability, T/C (second compound 1 µM, first compound 0.00949 µM): 82.6%
- viability, T/C (second compound 1 µM, first compound 0.03 µM): 89.2%
- viability, T/C (second compound 1 µM, first compound 0.0949 µM): 85%
- viability, T/C (second compound 1 µM, first compound 0.3 µM): 63.2%
- viability, T/C (second compound 1 µM, first compound 0.949 µM): 51.3%
- viability, T/C (second compound 1 µM, first compound 3 µM): 42.8%
- viability, T/C (second compound 3.16 µM, first compound 0.00949 µM): 87.3%
- viability, T/C (second compound 3.16 µM, first compound 0.03 µM): 79.5%
- viability, T/C (second compound 3.16 µM, first compound 0.0949 µM): 80.7%
- viability, T/C (second compound 3.16 µM, first compound 0.3 µM): 63.8%
- viability, T/C (second compound 3.16 µM, first compound 0.949 µM): 56%
- viability, T/C (second compound 3.16 µM, first compound 3 µM): 42.1%
- viability, T/C (second compound 10 µM, first compound 0.00949 µM): 79.9%
- viability, T/C (second compound 10 µM, first compound 0.03 µM): 88.4%
- viability, T/C (second compound 10 µM, first compound 0.0949 µM): 69.5%
- viability, T/C (second compound 10 µM, first compound 0.3 µM): 51.6%
- viability, T/C (second compound 10 µM, first compound 0.949 µM): 50.7%
- viability, T/C (second compound 10 µM, first compound 3 µM): 46.7%

Compound: CC[C@@]1(O)C(=O)OCc2c1cc1n(c2=O)Cc2cc3c(CN(C)C)c(O)ccc3nc2-1 + Cc1cccc(N(C)C(=O)C2C(O)CCN2c2nc(C)cc(C(F)(F)F)c2C#N)c1
- IC50 (second compound 0.0316 µM): > 100 nM
- IC50 (second compound 0.1 µM): > 100 nM
- IC50 (second compound 0.316 µM): > 100 nM
- IC50 (second compound 1 µM): > 100 nM
- IC50 (second compound 3.16 µM): > 100 nM
- IC50 (second compound 10 µM): > 100 nM
- viability, T/C (second compound 0.0316 µM, first compound 0.000316 µM): 111%
- viability, T/C (second compound 0.0316 µM, first compound 0.001 µM): 115%
- viability, T/C (second compound 0.0316 µM, first compound 0.00316 µM): 111%
- viability, T/C (second compound 0.0316 µM, first compound 0.01 µM): 106%
- viability, T/C (second compound 0.0316 µM, first compound 0.0316 µM): 114%
- viability, T/C (second compound 0.0316 µM, first compound 0.1 µM): 97.3%
- viability, T/C (second compound 0.1 µM, first compound 0.000316 µM): 112%
- viability, T/C (second compound 0.1 µM, first compound 0.001 µM): 111%
- viability, T/C (second compound 0.1 µM, first compound 0.00316 µM): 94%
- viability, T/C (second compound 0.1 µM, first compound 0.01 µM): 118%
- viability, T/C (second compound 0.1 µM, first compound 0.0316 µM): 105%
- viability, T/C (second compound 0.1 µM, first compound 0.1 µM): 92.8%
- viability, T/C (second compound 0.316 µM, first compound 0.000316 µM): 117%
- viability, T/C (second compound 0.316 µM, first compound 0.001 µM): 130%
- viability, T/C (second compound 0.316 µM, first compound 0.00316 µM): 101%
- viability, T/C (second compound 0.316 µM, first compound 0.01 µM): 95.9%
- viability, T/C (second compound 0.316 µM, first compound 0.0316 µM): 101%
- viability, T/C (second compound 0.316 µM, first compound 0.1 µM): 91.4%
- viability, T/C (second compound 1 µM, first compound 0.000316 µM): 111%
- viability, T/C (second compound 1 µM, first compound 0.001 µM): 114%
- viability, T/C (second compound 1 µM, first compound 0.00316 µM): 109%
- viability, T/C (second compound 1 µM, first compound 0.01 µM): 118%
- viability, T/C (second compound 1 µM, first compound 0.0316 µM): 110%
- viability, T/C (second compound 1 µM, first compound 0.1 µM): 81.5%
- viability, T/C (second compound 3.16 µM, first compound 0.000316 µM): 101%
- viability, T/C (second compound 3.16 µM, first compound 0.001 µM): 98.3%
- viability, T/C (second compound 3.16 µM, first compound 0.00316 µM): 98.2%
- viability, T/C (second compound 3.16 µM, first compound 0.01 µM): 86.6%
- viability, T/C (second compound 3.16 µM, first compound 0.0316 µM): 96.2%
- viability, T/C (second compound 3.16 µM, first compound 0.1 µM): 91.3%
- viability, T/C (second compound 10 µM, first compound 0.000316 µM): 117%
- viability, T/C (second compound 10 µM, first compound 0.001 µM): 120%
- viability, T/C (second compound 10 µM, first compound 0.00316 µM): 108%
- viability, T/C (second compound 10 µM, first compound 0.01 µM): 97.5%
- viability, T/C (second compound 10 µM, first compound 0.0316 µM): 90.8%
- viability, T/C (second compound 10 µM, first compound 0.1 µM): 77%
